Data as given in patent US20240382509A1, “Cannabinoids C- and O-glycosides possessing anti-proliferative and anti-metastatic properties and process for preparation thereof” (Council of Scientific and Industrial Research, priority 2021, published 2024).
Read-outs that look alike come from different tables or passages of the source.

Assays:
[1] = system: MIAPaCa-2 cells; experiment: MTT cell viability assay, MIAPaCa-2; assay type: cell-based, human
Method: (§1) Cell viability assay: The cell viability was determined by the standard MTT assay method. Briefly, Panc-1, HCT-116, A549, PC3, MIAPaca-2, HT-29, MDA-MB-231, MCF7 cells, and fR2cells were seeded in 96 well tissue culture plates (Nunc) at a density of 4×10^3 cells per well and treated with varying concentrations of the test compounds in triplicates. DMSO was taken as a vehicle, and its final concentration was maintained at 0.2% in the culture medium. Doxorubicin was employed as a positive control. After 44 h of incubation, MTT dye solution was added into the medium, and cells were incubated for another 4 h at 37° C. in 5% CO2. The amount of colored formazan derivatives formed was measured by taking optical density (OD) using a microplate reader (TECAN, Infinite M200 Pro) at 570 nm, and the percentage of cell viability was calculated. The IC50 values were calculated using GraphPad Prism software (Version 5.0).

[2] = system: HCT-116 cells; experiment: MTT cell viability assay, HCT-116; assay type: cell-based; conditions: for IC50: colorectal adenocarcinoma cells
Method: as §1

[3] = system: human colorectal adenocarcinoma cell line (HT-29); experiment: MTT cell viability assay, HT-29; assay type: cell-based; conditions: for IC50: human colorectal adenocarcinoma cell line
Method: as §1

[4] = system: MCF-7 cells; experiment: MTT cell viability assay, MCF-7; assay type: cell-based; conditions: breast cancer cell of epithelial origin
Method: as §1

[5] = system: Panc-1 cells; experiment: MTT cell viability assay, Panc-1; assay type: cell-based; conditions: for IC50: pancreatic cancer cells; for fold activity compared to parent compound, pancreatic cancer cells: ratio of IC50 parent vs derivative, Panc-1
Method: as §1

[6] = system: PC3 cells; experiment: MTT cell viability assay, PC3; assay type: cell-based
Method: as §1

[7] = system: lung adenocarcinoma cells (A549); experiment: MTT cell viability assay, A549; assay type: cell-based
Method: as §1

[8] = system: Panc-1 cells; experiment: Colony formation assay; assay type: cell-based; conditions: Panc-1, 1000 cells/well, 5 days, compared to corresponding parent compounds
Method: Colony formation assay. […] cells were seeded onto 6 well plates with a seeding density of 1000 cells/well. The cells after attachment were treated with 2 (2a, 2b), 3 (3a, 3b), 4 (4a, 4b) along with DMSO as a vehicle control and incubated for 5-6 days. After incubation, the plates were washed with ice-cold PBS, and the cells were fixed with methanol for 5 min. After fixing. the cells were stained with 0.2% crystal violet stain for 1 h. The cells were then washed with distilled water to remove the stain and were observed under an inverted microscope at 20× magnification.
The anti-proliferative properties of glycosidic derivatives were further analysed by colony formation assay in pancreatic cancer cells. The novel C-glycosidic derivatives of compounds 1, 2, 3 and 4 viz 1b, 2b, 3b & 4b display anti-proliferative property (FIG. 2). Panc-1cells were seeded onto 6 well plates at seeding density 1000 cells/well and treated with indicated concentration of 1b, 2b, 3b and 4b derivatives along with their parent compounds and DMSO as vehicle for 5 days. Upon termination the cells were stained with crystal violet and images of field were photographed.

[9] = system: MIAPaCa-2 cells; experiment: Cell scatter assay; assay type: cell-based, human; conditions: MIAPaCa-2, 1, 2, 3 μM, 36 h, compared to vehicle and parent molecule
Method: Cell scatter assay MIAPaCa-2 cells were seeded onto a 12 well plate at a seeding density of 500 cells/well and kept for 4-5 days, and there was the formation of scatter colonies since the cell line itself is a metastatic cell line. Accordingly, they were treated with 1 μM, 2 μM & 3 μM of compound 2, 2a, 2b, 3, 3a, 4, 4a & 4b for 36 h, and upon termination, they were washed with PBS and observed under an inverted microscope at 20× magnification (FIG. 3).

[10] = MTT cell viability assay, fR2 normal epithelial cells; assay type: cell-based, human; conditions: human, fR2 normal epithelial cells; MTT, 48 h; normal epithelial cell line; read-out: Cytotoxicity (IC50) fR2
Method: as §1

[11] = Homo sapiens, MIA PaCa-2, 48 h, MTT, 48 h, read-out: Cytotoxicity (IC50) MIAPaCa-2
[12] = Homo sapiens, HCT-116, 48 h, MTT, 48 h, read-out: Cytotoxicity (IC50) HCT-116
[13] = Homo sapiens, HT-29, 48 h, MTT, 48 h, read-out: Cytotoxicity (IC50) HT-29
[14] = Homo sapiens, MCF7, 48 h, MTT, 48 h, read-out: Cytotoxicity (IC50) MCF-7
[15] = Homo sapiens, PANC-1, 48 h, MTT, 48 h, read-out: Cytotoxicity (IC50) Panc-1
[16] = Homo sapiens, PC-3, 48 h, MTT, 48 h, read-out: Cytotoxicity (IC50) PC3
[17] = Homo sapiens, A549, 48 h, MTT, 48 h, read-out: Cytotoxicity (IC50) A549

Structure (SMILES) | IC50 [1, 11] [µM] | IC50 [2, 12] [µM] | IC50 [3, 13] [µM] | IC50 [4, 14] [µM] | IC50 [5, 15] [µM] | IC50 [6, 16] [µM] | IC50 [7, 17] [µM] | anti-proliferative potential in colony formation assay [8] | cell scattering [9] | fold activity compared to parent compound, pancreatic cancer cells [5] [fold] | further results
CCCCCc1cc(O)c2c(c1)OC(C)(C)[C@@H]1CCC(C)=C[C@@H]21 [Compound 2, Δ^9-tetrahydrocannabinol, reference compound] |  |  |  |  |  |  |  |  |  |  | IC50 ([1]; MTT, 48 h, read-out: Cytotoxicity (IC50) MIAPaCa-2): 4.47 µM; IC50 ([2]; MTT, 48 h, read-out: Cytotoxicity (IC50) HCT-116): 19 µM; IC50 ([3]; MTT, 48 h, read-out: Cytotoxicity (IC50) HT-29): > 100 µM; IC50 ([4]; MTT, 48 h, read-out: Cytotoxicity (IC50) MCF-7): 43 µM; IC50 ([5]; MTT, 48 h, read-out: Cytotoxicity (IC50) Panc-1): 21.1 µM; IC50 ([6]; MTT, 48 h, read-out: Cytotoxicity (IC50) PC3): > 100 µM; IC50 ([7]; MTT, 48 h, read-out: Cytotoxicity (IC50) A549): 11.7 µM
CCCCCc1cc2c(c(O)c1[C@@H]1OC(CO)[C@@H](O)C(O)C1O)-c1cc(C)ccc1C(C)(C)O2 (stereo partly drawn) [Compound 4b, Cannabinol-2-C-β-D-glucopyranoside] | 8.31 | 3 | 11.5 | 43.1 | 13.9 | 39 | 22.6 | strong anti-proliferative potential | typical clumping of scatter cells |  | fold anti-proliferative activity compared to parent compound, HCT-116 ([2]; ratio of IC50 parent 4 vs derivative): > 15 fold
CCCc1cc2c(c(O)c1[C@@H]1OC(CO)[C@@H](O)C(O)C1O)[C@@H]1CC(C)=CC[C@H]1C(C)(C)O2 (stereo partly drawn) [Compound 1b, Δ^8-tetrahydrocannabivarin-2-C-β-D-glucopyranoside] | 9.2 | 3.91 | 40.2 | > 100 | 4.12 | 24 | 35.7 | strong anti-proliferative potential |  | > 2 | 
CCCCCc1cc(O[C@@H]2OC(CO)[C@@H](O)C(O)C2O)c2c(c1)OC(C)(C)c1ccc(C)cc1-2 (stereo partly drawn) [Compound 4a, Cannabinol-1-O-β-D-glucopyranoside] |  |  |  |  |  |  |  |  | typical clumping of scatter cells |  | IC50 ([1]; Homo sapiens, MIA PaCa-2, 48 h, read-out: Cytotoxicity (IC50) MIAPaCa-2, MTT, 48 h): 2.58 µM; IC50 ([2]; Homo sapiens, HCT-116, 48 h, read-out: Cytotoxicity (IC50) HCT-116, MTT, 48 h): 2.98 µM; IC50 ([3]; Homo sapiens, HT-29, 48 h, read-out: Cytotoxicity (IC50) HT-29, MTT, 48 h): 3.53 µM; IC50 ([4]; Homo sapiens, MCF7, 48 h, read-out: Cytotoxicity (IC50) MCF-7, MTT, 48 h): 7.74 µM; IC50 ([5]; Homo sapiens, PANC-1, 48 h, read-out: Cytotoxicity (IC50) Panc-1, MTT, 48 h): 3.16 µM; IC50 ([6]; Homo sapiens, PC-3, 48 h, read-out: Cytotoxicity (IC50) PC3, MTT, 48 h): 51.4 µM; IC50 ([7]; Homo sapiens, A549, 48 h, read-out: Cytotoxicity (IC50) A549, MTT, 48 h): 3.01 µM; IC50 at 48 h [10]: > 100 µM
CCCCCc1cc2c(c(O)c1[C@@H]1OC(CO)[C@@H](O)C(O)C1O)[C@@H]1C=C(C)CC[C@H]1C(C)(C)O2 (stereo partly drawn) [Compound 2b, Δ^9-tetrahydrocannabinol-2-C-β-D-glucopyranoside] | 1.59 | 43.2 | 10.8 | 7.4 | 3.16 | 28 | 1.32 | strong anti-proliferative potential | typical clumping of scatter cells | 6.6 | fold anti-proliferative activity compared to parent compound, HT-29 ([3]; ratio of IC50 parent 2 vs derivative): more than 10 fold
